Patent publication US20220119399A1, “COMPOUNDS AND COMPOSITIONS THAT CAUSE MYCN AND/OR CMYC DEGRADATION AND METHODS OF USE THEREOF” (THE TRUSTEES OF COLUMBIA UNIVERSITY IN THE CITY OF NEW YORK, priority 2018, published 2022)
Entries after “also recorded” stand apart in the source; their conditions may differ. Where a SMILES comes first, the peptide text is derived from it. The star is where a group is joined. Cbz = O=C(OCc1ccccc1)*

What was measured:
[1] = Metabolic stability in mouse liver microsomes; assay type: in vitro ADME; conditions: 2 h incubation, positive control
Description: Mouse liver microsomes (Xenotech) were diluted to 0.5 mg/mL in a solution containing 100 mM PBS buffer at 7.4 pH, an NADPH regenerating system (Promega), and test compounds at 20 μM. The mixture was incubated at 37° C. under gentle rotation for the indicated time points. The reaction was quenched by aliquoting 15 μL of solution into 60 μL ice-cold acetonitrile containing an internal standard. Test compounds were quantified by LC-MS using a system comprised of a Thermo Scientific Dionex Ultimate 3000 and a Bruker amaZon SL equipped with an electrospray ionization source controlled by a Bruker Hystar 3.2. Compounds were separated by injecting 20 μL of sample onto an Agilent Eclipse Plus C18 column (2.1×50 mm, […]) maintained at 20° C., with the flow rate set at 400 μL/min. Initial flow conditions were 60% solvent A (MilliQ H2O, 0.1% acetic acid), and 40% solvent B (HPLC-grade MeOH, 0.1% acetic acid). Solvent B was raised to 60% over 0.25 min and to 70% by 6.75 min. Solvent B was raised to 95% by 7 min and lowered back to 40% by 8 minutes; total run time was 9 min.

[2] = test system: SK-N-Be2 cells; assay: Cell viability assay (CellTiterGlo) in SK-N-Be2 cells; assay type: cell-based, human; conditions: for IC20: determined empirically
[3] = test system: Histone H3 phosphorylation; assay: Histone H3 phosphorylation western blot; assay type: cell-based; conditions: 1 μM
Description: Membranes were blocked using Odyssey Blocking Buffer (LI-COR) for 1 hr at room temperature. […] Primary antibodies used in these studies include: MycN (CST; 1:500 dilution), Actin (SCBT; 1:2000 dil.), cMYC (CST; 1:500 dil.), pAKT (S473; CST; 1:500 dil.), AKT (CST; 1:2000), pP70 (T389; CST; 1:1000) P70 (CST; 1:1000).
We also compared the potency of these drugs against a recently developed AurKA inhibitor that acts by disrupting protein confirmation rather than simply blocking the protein:protein interaction site as alisertib does.

[4] = test system: MycN^AMP regulatory module (Master Regulators, TCM); assay: PLATE-Seq with VIPER analysis: reversion of the MycN^AMP master regulator module; assay type: cell-based, human; conditions: SK-N-Be2 cells, IC20, 24 hrs
Description: Reads were mapped against the human reference genome version Grch38 using the STAR aligner, and used the variance stabilizing transformation from the DESeq2 package for R to normalize each plate. Next, we corrected for batch effect due to having compounds replicates on separate plates. We used the function combat from the sva package for R to compute the batch-corrected normalized gene expression, and fitted a linear model for each compound against the set of DMSO controls on each plate (6 wells per plate per DMSO-treated cells). We used the limma package for R to fit the linear model and to compute p-values and moderated t-statistics for each gene. For each compound, we used a vector of these statistics to generate a gene expression profile of z-scores representing the compound effect as differential between post- and pre-treatment.
Each compound gene expression profile was analyzed using the VIPER algorithm (Alvarez et al. 2016) with TARGET and NRC NBL interactomes, reverse-engineered as described in (Rajbhandari et al. 2018), resulting in two protein activity profiles for each compound that were integrated using Stouffer's z-score method.

[5] = biological target: mTOR (Homo sapiens, UniProt P42345); conditions: Bajer et al. 2014; cited from earlier work
[6] = test system: mutant isoform of CK2a1; assay: Cell viability after expression of mutant CK2a1 isoform; conditions: versus GFP-expressing plasmid
[7] = biological target: T1, CK2a1 (Homo sapiens, UniProt P68400); assay: Cell-free biochemical CK2a1 kinase assay
T1 construct: purchased Reaction Biology Corporation (Malvern, Pa.)
Description: Cell-free biochemical kinase assays were performed at Reaction Biology Corporation (Malvern, Pa.). In brief, kinase substrates were diluted into reaction buffer containing 20 mM Hepes (pH 7.5), 10 mM MgCl2, 1 mM EGTA, 0.02% Brij35, 0.02 mg/ml BSA, 0.1 mM Na3VO4, 2 mM DTT, 1% DMSO. Purified protein (CK2a1, CK2a2, or mTOR) was added to the substrate solution and gently mixed. Test compounds were diluted from 10 mM DMSO stock solutions into the reaction buffer using an Echo550 acoustic dispenser, followed by incubation at RT for 20 min. 33P-ATP (10 μCi/μL) was added to reaction mixture, following incubation for 2 h at RT. Reactions were then spotted onto P81 ion exchange paper and kinase activity was detected by filter binding method.

[8] = test system: SK-N-Be2 cells; assay type: in vitro ADME, human
Description: In brief, SK-N-Be2 cells were seeded at 400 k cells/well in 6 w plates and incubated overnight. The following day, compounds were added to wells at indicated concentrations, with DMSO-only control added to non-treated wells. Following treatment for the indicated time periods, cells were trypsinized, rinsed twice with cold PBS to remove media, pelleted by centrifugation, and frozen at −20° C. To extract compounds, frozen pellets were resuspended in 150 μL of acetonitrile, sonicated for 2′, and centrifuged at 1400×g for 75′ at 4° C. Supernatant was collected and analyzed by LC-MS using a system comprised of a Thermo Scientific Dionex Ultimate 3000 and a Bruker amaZon SL equipped with an electrospray ionization source controlled by a Bruker Hystar 3.2. Compounds were separated by injecting 20 μL of supernatant onto an Agilent Eclipse Plus C18 column (2.1×50 mm, […]) maintained at 20° C., with the flow rate set at 400 μL/min. Initial flow conditions were 60% solvent A (MilliQ H2O, 0.1% acetic acid), and 40% solvent B (HPLC-grade MeOH, 0.1% acetic acid). Solvent B was raised to 60% over 0.25 min and to 70% by 6.75 min. Solvent B was raised to 95% by 7 min and lowered back to 40% by 8 minutes; total run time was 9 min (Bos et al. 2019).

[9] = test system: MYCN transcript; assay: RNASeq analysis of SK-N-Be2 cells, MYCN transcript; assay type: cell-based, human; conditions: 3 μM or 10 μM, 3 h and 6 h
Description: (§1) To uncover changes in gene expression that underpin responses to pomiferin and isopomiferin, RNASeq analysis of SK-N-Be2 cells was performed following treatment with the two active prenylated isoflavonoids as well as a null analog that served as a negative control. SK-N-Be2 cells were treated with either 3 μM or 10 μM of isopomiferin or pomiferin and sampled after 3 h and 6 h. […] By comparing the active to the null analogs, downstream analyses can focus on changes in gene expression associated with the MYCN signature.

[10] = test system: TEAD4 transcript; assay: RNASeq analysis of SK-N-Be2 cells, TEAD4 transcript; assay type: cell-based, human; conditions: 3 μM or 10 μM, 3 h and 6 h
Description: as §1

[11] = test system: MYCN MR signature; assay: RNASeq with VIPER analysis of the MYCN MR signature; assay type: cell-based, human; conditions: SK-N-Be2 cells; listed as dimethyl pomiferin
Description: as §1
Intriguingly, only six MRs were suppressed by pomiferin and isopomiferin, while being unaffected by the null analog dimethyl pomiferin (FIG. 20B).

[12] = Homo sapiens, SKNBE2, SK-N-Be2 cells

T1 sequence (P68400 whole entry): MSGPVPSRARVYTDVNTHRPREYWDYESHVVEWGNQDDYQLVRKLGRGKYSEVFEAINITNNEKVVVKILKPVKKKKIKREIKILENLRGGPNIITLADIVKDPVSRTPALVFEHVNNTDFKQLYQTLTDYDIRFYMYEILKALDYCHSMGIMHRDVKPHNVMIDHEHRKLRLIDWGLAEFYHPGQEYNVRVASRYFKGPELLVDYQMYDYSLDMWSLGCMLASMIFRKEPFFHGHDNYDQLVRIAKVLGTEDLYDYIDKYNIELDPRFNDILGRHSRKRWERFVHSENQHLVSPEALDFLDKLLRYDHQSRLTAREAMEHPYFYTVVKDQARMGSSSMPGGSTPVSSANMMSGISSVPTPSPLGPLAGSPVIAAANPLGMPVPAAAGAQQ

Q: For `CCOc1ccc2ccc(=O)oc2c1` [7-ethoxycoumarin, reference compound], which “metabolism by mouse liver microsomes” value [1] is on record?
A: metabolized across the duration of the assay

Q: Which results are given for `CN(C)c1ccc2nc3ccc(=[N+](C)C)cc-3sc2c1` [Methylene Blue]?
A: IC20 [2, 12]: 2 µM; Histone H3 phosphorylation [3]: inhibit Histone H3 phosphorylation

Q: Which “reversion of the MR regulatory module / TCM (VIPER of PLATE-Seq)” value [4] does the source give for `COc1cc(Nc2ncc3c(n2)-c2ccc(Cl)cc2C(c2c(F)cccc2OC)=NC3)ccc1C(=O)O` [alisertib] here?
A: does not suppress the regulatory signature in the same way as isopomiferin

Q: And the “Histone H3 phosphorylation” value [3]?
A: inhibit Histone H3 phosphorylation

Q: For `CC(=O)Oc1ccc(-c2coc3c4c(c(CC=C(C)C)c(OC(C)=O)c3c2=O)OC(C)(C)C=C4)cc1OC(C)=O` [pomiferin triacetate, 4-(5-acetoxy-8,8-dimethyl-6-(3-methylbut-2-en-1-yl)-4-oxo-4H,8H-pyrano[2,3-f]chromen-3-yl)-1,2-phenylene diacetate], which “mTOR activity and general kinase inhibition” value [5] is on record?
A: can inhibit mTOR activity; also recorded: does not possess general kinase inhibition activity

Q: Which “reversion of the MR regulatory module / TCM (VIPER of PLATE-Seq)” value [4] does the source give for `COc1cccc2c1C(=O)c1c(O)c3c(c(O)c1C2=O)C[C@@](O)(C(=O)CO)C[C@@H]3O[C@H]1C[C@H](N)[C@H](O)[C@H](C)O1` [doxorubicin] here?
A: induced spurious effects

Q: Which “resistance conferred by mutant CK2 isoform” value [6] does the source give for `CC(C)C[C@@H](C=O)NC(=O)[C@H](CC(C)C)NC(=O)[C@H](CC(C)C)NC(=O)OCc1ccccc1` [MG132] (Cbz-Leu-Leu-Leu-aldehyde) here?
A: no resistance was conferred by the plasmid

Q: Which IC20 [2, 12] does the source give for `Oc1ccc(Cl)c2cccnc12` [Cloxyquin] here?
A: 5 µM

Q: Which “activity in NBL cells (cell viability)” value ([2]; NBL cell lines, 48 hrs) does the source give for `c1ccc2c(c1)Nc1ccccc1S2` [phenothiazine] here?
A: inactive in NBL

Q: And the “reversion of the MR regulatory module / TCM (VIPER of PLATE-Seq)” value [4]?
A: does not revert the signature

Q: With `CC[C@@H](C(=O)O)[C@@H]1O[C@@H]([C@@H](C)[C@H](O)[C@H](C)C(=O)[C@H](CC)[C@H]2O[C@]3(C=C[C@@H](O)[C@]4(CC[C@@](C)([C@H]5CC[C@](O)(CC)[C@H](C)O5)O4)O3)[C@H](C)C[C@@H]2C)[C@@H](C)C[C@@H]1C` [Narasin] as the compound, how does the IC20 [2, 12] read?
A: 1 µM

Q: With `CO[C@H]1/C=C\C=C(/C)C(=O)NC2=CC(=O)C(N)=C(C[C@@H](C)C[C@H](OC)[C@H](O)[C@@H](C)/C=C(\C)[C@@H]1OC(N)=O)C2=O` [NSC255109] as the compound, how does the IC20 ([2]; SK-N-Be2 cells) read?
A: 2.5 µM

Q: Which results are given for `O=C(O)c1ccc2c(c1)nc(Nc1cccc(Cl)c1)c1ccncc12` [CX-4945]?
A: CK2a1 kinase activity [7]: completely inhibited kinase activity of CK2a at all concentrations tested; cell permeability [8]: poor cell permeability; amount of compound detected in cell sample ([8]; human, 20 μM): 2.2 ng; resistance conferred by mutant CK2 isoform [6]: modest resistance

Q: With `COc1c(C)c2c(c(O)c1C/C=C(\C)CCC(=O)O)C(=O)OC2` [Mycophenolic acid] as the compound, how does the IC20 [2, 12] read?
A: 2.5 µM

Q: For `OC(c1cc(-c2ccc(C(F)(F)F)cc2)nc(C(F)(F)F)c1)C1CCCCN1` (stereo not shown) [NSC305798], which IC20 ([2]; SK-N-Be2 cells) is on record?
A: 5 µM

Q: For `COc1ccc(-c2coc3c4c(c(CC=C(C)C)c(O)c3c2=O)OC(C)(C)C=C4)cc1OC` [pomiferin dimethyl ether, 3-(3,4-dimethoxyphenyl)-5-hydroxy-8,8-dimethyl-6-(3-methylbut-2-en-1-yl)-4H,8H-pyrano[2,3-f]chromen-4-one], which “inhibition of SK-N-Be2 cell viability (rank or activity in words)” value ([2]; SK-N-Be2 cells, 72 hrs) is on record?
A: inactivity at 20 μM

Q: And the “MYCN transcript abundance (RNASeq)” value [9]?
A: did not affect either MYCN or TEAD4

Q: What about the “TEAD4 transcript (RNASeq)” value [10] of the same compound?
A: did not affect either MYCN or TEAD4

Q: And the “effect on the MYCN MR signature (VIPER of RNASeq)” value [11]?
A: does not revert the MYCN signature; also recorded: did not

Q: For `c1ccc(-c2cccc(-c3ccccn3)n2)nc1` [NSC3905], which IC20 ([2]; SK-N-Be2 cells) is on record?
A: 3 µM

Q: For `CC(=O)[C@@]1(O)[C@H](C)C[C@H]2[C@@H]3C=C(C)C4=Cc5c(cnn5-c5ccccc5)C[C@]4(C)[C@H]3[C@@H](O)C[C@@]21C` [NSC80997], which IC20 ([2]; SK-N-Be2 cells) is on record?
A: 7.5 µM

Q: Which results are given for `CN(C)c1ccc2nc3ccc(N)cc3[s+]c2c1.[Cl-]` [Azure A]?
A: IC20 ([2]; SK-N-Be2 cells): 1 µM; Histone H3 phosphorylation [3]: inhibit Histone H3 phosphorylation

Q: Which IC20 [2, 12] does the source give for `COc1cc([C@@H]2c3cc4c(cc3[C@H](O)[C@H]3COC(=O)[C@H]23)OCO4)cc(OC)c1OC` [Podofilox] here?
A: 1 µM
